Laboratory results reported in patent publication US20070149400A1, “6-(2-Chloro-4-alkoxyphenyl)triazolopyrimidines, their preparation and their use for controlling harmful fungi, and compositions comprising these compounds” (priority 2003, published 2007).

Test system: Alternaria solani
Experiment: Activity against early blight of tomato caused by Alternaria solani (protective spray, potted plants)
Type: in vivo
Settings: 63 ppm active compound, tomato cultivar Goldene Prinzessin, infected next day, assessed after 5 days; untreated plants 90% infected
Procedure: The active compounds were prepared as a stock solution comprising 0.25% by weight of active compound in acetone or DMSO. 1% by weight of the emulsifier Uniperol® EL (wetting agent having emulsifying and dispersing action based on ethoxylated alkylphenols) was added to this solution, and the mixture was diluted with water to the desired concentration. Leaves of potted plants of the cultivar “Goldene Prinzessin” were sprayed to run off point with an aqueous suspension having the concentration of active compounds stated below. The next day, the leaves were infected with an aqueous […] suspension of Alternaria solani in 2% biomalt solution having a density of 0.17×10^6 spores/ml. The plants were then placed in a water-vapor-saturated chamber at temperatures of between 20 and 22° C. After 5 days, the disease on the leaves of the untreated, but infected control plants had developed to such an extent that the infection could be determined visually in %.

Compound: CCC(C)Nc1c(-c2ccc(OC)cc2Cl)c(Cl)nc2ncnn12 (racemic) [Compound I-3, 5-chloro-6-(2-chloro4-methoxyphenyl)-7-but-2-ylamino-[1,2,4]-triazolo[1,5-a]pyrimidine]
- infection of the leaves, determined visually in %: no infection
